Patent US20240239823A1, “PHOSPHINATE ESTER-CONTAINING DYES HAVING TUNABLE PROPERTIES AND METHODS OF MAKING THE SAME” (University of Virginia Patent Foundation, priority 2021, published 2024)

Experiments:
[1] = Aggregation in aqueous solution (absorbance versus concentration, SDS addition); type: physicochemical; conditions: for effect of surfactant on absorbance: addition of 0.1% SDS, water; for aggregation / H-aggregate formation (blue-shifted absorbance band): aqueous solutions; for aggregation / H-aggregate formation (blue-shifted absorbance band) / linearity of absorbance versus concentration: increasing concentrations; for linearity of absorbance versus concentration: in water
Source text: FIG. 2.2A: The structure of methylene blue (MB) and NR751.

[2] = system: RAW 264.7 cells; assay: Confocal imaging of RAW 264.7 cells with or without stimulation to produce endogenous HOCl; type: cell-based; conditions: 50 μM; cells producing HOCl
Experimental: FIGS. 5.2A-5.2C show phosphinate-containing dyes as gated small molecule delivery vehicles for cytotoxic compounds in cells. FIG. 5.2A: The structure of NR—HOCl-1541B (left). Selective reaction with HOCl results in the gated release of 1541B, a cytotoxic compound, and a fluorescent NR dye (right) FIG. 5.2B: Viability of RAW 264.7 macrophages in the presence or absence of stimulation to produce endogenous HOCl (LPS and PMA), cells were incubated with 50 μM 1541B or NR—HOCl-1541B where indicated. FIG. 5.2C: Confocal imaging of RAW 264.7 cells incubated with 50 μM NR—HOCl-1541B in the presence or absence of stimulation to produce endogenous HOCl.

[3] = Quenching of dye absorbance by glutathione (GSH); type: physicochemical; conditions: absence versus presence of GSH
Source text: The absorbance of NR708 in the absence or presence of GSH is shown.
In order to improve the chemical stability of NR dyes to nucleophiles found in biological systems, such as glutathione (GSH), bulky substituents were introduced to protect the C9 position of the dyes from nucleophilic attack. Accordingly, derivatives of NR700 and NR666, termed NR708 and NR675, respectively, were synthesized that bear bulky substituents on the pendant phenyl ring proximal to the C9 position of the dye (FIG. 3.1). […] The improved chemical stability of these dyes will provide brighter probes for imaging applications.

Row | SMILES | effect of surfactant on absorbance [1] | aggregation / H-aggregate formation (blue-shifted absorbance band) [1] | linearity of absorbance versus concentration [1] | fluorescence and payload delivery in cells [2] | quenching / change of absorbance in the presence of glutathione (GSH) [3]
1 | CC1=CC(=[N+](C)C)C=C2C1=Nc1c(C)cc(N(C)C)cc1P2(=O)O [NR751] | No change is observed in the absorbance | significantly reduced aggregation | clear linear increase in absorbance versus concentration | – | –
2 | CN(C)c1ccc2c(c1)P(=O)(Oc1cccc3cc(C(=O)Nc4cccc(-c5cn6ccccc6n5)c4)c(=O)oc13)c1cc(N(C)C)ccc1C21SCc2ccccc21 (centres unmarked) [NR—HOCl-1541B] | – | – | – | Clear evidence of fluorescence, and payload delivery | –
3 | CN(C)c1ccc2nc3ccc(=[N+](C)C)cc-3sc2c1 [MB, methylene blue, reference compound] | reduces the intensity of the blue-shifted H-Aggregate absorption band | increase in H-aggregate formation | clear deviation from linearity | – | –
4 | COc1cccc(OC)c1C1=C2C=CC(=[N+](C)C)C=C2P(=O)(O)c2cc(N(C)C)ccc21 [NR675] | – | – | – | – | virtually no quenching
